{"source": "patent US20250339396A1", "about": "(COSMAS THERAPEUTICS DEVELOPMENT INC., priority 2021, published 2025)", "key": {"[1]": {"assay": "Stability of Prodrug D in solvents by HPLC", "type": "physicochemical", "protocol": "For this test, we used HPLC with different solvent systems. […] Therefore, after initial assessment, this method was used for the remaining tests. Prodrug D or UCM924 (comparator) were dissolved in the different solvents listed in the table below and, after the waiting period indicated, HPLC tests were carried out according to the above. The results are shown in the table below, in which the percentages represent the quantity of prodrug D or UCM924 detected in the samples."}, "neuropathic (SNI) rats": {"system": "neuropathic (SNI) rats", "assay": "Sleep restoration in neuropathic rats, 24 h EEG/EMG recordings (REM, NREM, wakefulness, sleep fragmentation index)", "type": "in vivo, rat", "details": "for NREM 24 h, mean difference (Bonferroni's multiple comparison test) / REM 24 h, mean difference (Bonferroni's multiple comparison test) / Wake 24 h, mean difference (Bonferroni's multiple comparison test) / SFI (sleep fragmentation index), mean difference (Bonferroni's multiple comparison test): Prodrug D 150 mg/kg, neuropathic (SNI) rats; for NREM 24 h, mean difference (Bonferroni's multiple comparison test) / REM 24 h, mean difference (Bonferroni's multiple comparison test) / Wake 24 h, mean difference (Bonferroni's multiple comparison test): 24 h EEG/EMG; for SFI (sleep fragmentation index), mean difference (Bonferroni's multiple comparison test): awakenings in 24 h divided by total sleep time in hours", "protocol": "Wistar rats weighted 120 g at the beginning of the experiment were housed under standard conditions, at a constant temperature of 22° C., with food and water provided ad libitum and under a 12 h light/dark cycle (lights on at 7:00 AM; lights off at 7:00 PM). All experimental procedures and surgeries were approved by the Animal Ethics Committee of local institutional committee for animal use and care (McGill University, Canada), following the Canadian Institute of Health Research for animal care and scientific use.\nOnly animals presenting allodynia (mean 2.5 gr) 14 days after SNI surgery, were then implanted EEG/EMG electrode, for 24 hours electrical recording and non-allodynic rat were excluded.\nSham and neuropathic rats were deeply anesthetized with isoflurane (5% for induction, 2-3% for maintenance) and placed in a stereotaxic frame. For EEG monitoring, three stainless-steel epidural electrodes were positioned through 1.5 mm burr holes at-2 mm anteroposterior (AP) and −3 mm lateral (L), −4.5 mm AP and +3 mm L, −7 mm AP and […] according to bregma (Paxinos and Watson 2006). For the EMG signal, three flexible stainless-steel wires were implanted into the neck muscle. Then, wires and connectors were fixed to the skull using dental acrylic (Coltene/Whaledent Inc. USA). Rats were given 5 days to recovery (Ochoa-Sanchez, et al., 2011).\n24-h after electrode implantation surgery, rats were placed for habituation in the recording room from 12:00 PM to 9:00 PM on a daily basis. During this time, the rats were placed in the recording chambers and connected to a flexible 6-flat cable (3M Scotchflex®), in a freely moving manner. No recordings were performed, but tolerance to the cable, and sleep behavior were observed. The day 5 of habituation, recordings were performed for 24 h, starting at 6:00 PM.\nProdrug D (150 mg/kg) was dissolved in 40% PEG 400 and 60% water (about 2.5 mL average for rats by gavage) and was administered at 6 am and 6 pm.\nThe amplification of EEG/EMG signals were at the total gain of 10.000. EEG/EMG signals were digitalized by a CED 1401 interface system, processed on-line, and analyzed off-line by Spike 2 software, in parallel with analog-to-digital samplings of amplified (Grass, P55) polygraphic signals (EEG; sampling rate, 100 or 200 Hz). Consecutive 10-s epochs were subjected to a Fast Fourier Transform (FFT) and EEG power spectra density was computed in the frequency range of 0-64 Hz (Ochoa-Sanchez, R et al., 2011).\nAnalysis was made offline using the spike 2 software (Cambridge). Three classical sleep stages are identified using EEG and EMG recordings. Wakefulness was determined by a sustained activity of EMG and low amplitude and high frequency of EEG. NREM (non-rapid eyes movement) sleep was characterized by high amplitude […] (1-4 Hz) and low muscle activity. REM (rapid eyes movement) sleep was marked with muscle atonia as observed in EMG and low amplitude […] in EEG (6-11). Only period longer than 10 seconds was marked for further analysis of awake, REM and NREM sleep, in order to eliminate the transitional period such as drowsiness (Ochoa-Sanchez, R et al., 2011).\nGiven the changes induced by the neuropathy on sleep parameters, we then calculate the sleep fragmentation index (SFI). SFI was calculated as the total number of awakenings in 24 h divided by the total sleep time in hours.\nData analysis was done using GraphPad Prism statistical software version 5.04 […]. One-way ANOVA was performed for 24 h time of REM, NREM and wakefulness as well as sleep fragmentation index. Post-hoc analyses were performed using the Bonferroni t-test comparisons. All data are expressed as mean±SEM. P<0.05 was considered significant."}, "[2]": {"details": "SNI rats, 150 mg/kg by gavage at 6 am and 6 pm"}}, "data": [{"smiles": "CC(=O)N(CCN(c1ccc(F)cc1)c1cccc(Br)c1)C(=O)OCOC(=O)CN.Cl", "note": "[Prodrug D, ((acetyl(2-((3-bromophenyl)(4-fluorophenyl)amino)ethyl)carbamoyl)oxy)methyl 2-aminoacetate hydrochloride]", "values": [{"measurement": "quantity detected in the sample by HPLC", "setting": "[1]; HPLC Method 1, H2O, 0 h, pH ~7.0", "value": 90.15, "unit": "%"}, {"measurement": "quantity detected in the sample by HPLC", "setting": "[1]; HPLC Method 2, 1N HCl, overnight at rt, pH ~0", "value": 85.21, "unit": "%"}, {"measurement": "quantity detected in the sample by HPLC", "setting": "[1]; HPLC Method 2, 40% PEG400:60% H2O, overnight at rt, pH ~7.0", "value": 58.17, "unit": "%"}, {"measurement": "quantity detected in the sample by HPLC", "setting": "[1]; HPLC Method 2, H2O, 0 h, pH ~7.0", "value": 93.92, "unit": "%"}, {"measurement": "quantity detected in the sample by HPLC", "setting": "[1]; HPLC Method 2, H2O, overnight at rt, pH ~7.0", "value": 18.28, "unit": "%"}, {"measurement": "quantity detected in the sample by HPLC", "setting": "[1]; HPLC Method 2, Saturated NaHCO3aq, 2 h at rt, pH ~8.5", "value": 27.21, "unit": "%"}, {"measurement": "stability at different PH", "setting": "[1]; rank order", "value": "acidic>neutral>basic"}, {"measurement": "NREM 24 h, mean difference (Bonferroni's multiple comparison test)", "setting": "neuropathic (SNI) rats; Control vs SNI + Prodrug D", "value": "−236.5"}, {"measurement": "REM 24 h, mean difference (Bonferroni's multiple comparison test)", "setting": "neuropathic (SNI) rats; Control vs SNI + Prodrug D", "value": "−107"}, {"measurement": "Wake 24 h, mean difference (Bonferroni's multiple comparison test)", "setting": "neuropathic (SNI) rats; Control vs SNI + Prodrug D", "value": 343.4}, {"measurement": "SFI (sleep fragmentation index), mean difference (Bonferroni's multiple comparison test)", "setting": "neuropathic (SNI) rats; Control vs SNI + Prodrug D", "value": 0.2758}, {"measurement": "REM time, NREM time and time in wakefulness during 24 h", "setting": "neuropathic (SNI) rats; [2]", "value": "restore all the three parameters"}, {"measurement": "sleep fragmentation index (SFI)", "setting": "neuropathic (SNI) rats; [2]", "value": "reverse the fragmentation"}, {"measurement": "NREM 24 h, mean difference (Bonferroni's multiple comparison test)", "setting": "neuropathic (SNI) rats; Sham vs SNI + Prodrug D", "value": "−62.39"}, {"measurement": "REM 24 h, mean difference (Bonferroni's multiple comparison test)", "setting": "neuropathic (SNI) rats; Sham vs SNI + Prodrug D", "value": "−44.39"}, {"measurement": "Wake 24 h, mean difference (Bonferroni's multiple comparison test)", "setting": "neuropathic (SNI) rats; Sham vs SNI + Prodrug D", "value": 106.8}, {"measurement": "SFI (sleep fragmentation index), mean difference (Bonferroni's multiple comparison test)", "setting": "neuropathic (SNI) rats; Sham vs SNI + Prodrug D", "value": 0.01886}]}]}
